The values below come from patent US20060130244A1, “Aqueous composition for dyeing keratin fibres comprising a dye and a specific block copolymer” (priority 2004, published 2006).

Series [1] can be described thus: Stability of dye in alkaline oxidizing medium (test tube, visual coloration). In kind it is physicochemical. The note with it: ammoniacal solution. The method, then: The dye tested is Basic Red 76.
In a first trial, an ammoniacal solution at 0.04% by weight of dye at pH=9 was added to a test tube and the solution was left to stand for 1 hour.
In a second trial, an ammoniacal solution at 0.04% by weight of dye at pH=9 was added to a test tube in the presence of a poly(sodium acrylate-b-acrylamide) diblock copolymer, in which each block has, respectively, a number-average molecular mass of 5000 and 30 000, and in the presence of aqueous hydrogen peroxide at 3%, and the mixture is left to stand for 1 hour.

Series [2] can be described thus: Solubility of dye in aqueous medium (test tube, visual appearance). In kind it is physicochemical. The method, then: The dye tested is Astrazon Orange R (or Basic Orange 22).
In a first trial, an aqueous solution comprising 0.04% of dye is added to a test tube.
In a second trial, a solution comprising 0.04% of dye, followed by 0.05% by weight of a poly(sodium acrylate-b-acrylamide) diblock copolymer (copolymer of Example 2), are added to a test tube. […] This thus attests to the ability of the block polymers in accordance with the invention to increase the solubility of dyes that are difficult to solubilize in an aqueous medium.

On to `COc1ccccc1N=Nc1c(O)ccc2ccc([N+](C)(C)C)cc12.[Cl-]` [Basic Red 76], for which the “coloration of the solution after standing 1 hour, dye alone” value in series [1] (0.04% by weight of dye, pH 9, no copolymer) is on record as “visible loss of coloration”. Moreover, in series [1] (0.04% dye, pH 9, with poly(sodium acrylate-b-acrylamide) diblock copolymer (5000/30 000) and 3% aqueous hydrogen peroxide), the “coloration of the solution after standing 1 hour, with block copolymer” value was “remains stable”.

Take Astrazon Orange R: the “appearance of aqueous solution, with block copolymer” value in series [2] (0.04% of dye plus 0.05% by weight poly(sodium acrylate-b-acrylamide) diblock copolymer) is “clear solution”. The “appearance of aqueous solution, dye alone” value in series [2] (aqueous solution, 0.04% of dye, no copolymer) was “cloudy appearance”.
